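Compound exposure: 48 hours, 5 concentrations, 96-well plates. GI50 = concentration required for 50% inhibition of growth.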 Calls of active or inactive are those of the source. Cut-off read from the data, not from the text of the source: active = GI50 up to about 1.1 µM and inactive = higher.
Experiments:
Experiment in all cases: NCI tumour cell line growth inhibition, 48 h
SNB-75 = system: SNB-75
SN12C = system: SN12C
M14 = system: M14
SW-620 = system: SW-620
K562 = system: K562
HCT-15 = system: HCT-15
DLD-1 = system: DLD-1
RXF 393 = system: RXF 393
LOX IMVI = system: LOX IMVI
CAKI-1 = system: CAKI-1
SK-OV-3 = system: SK-OV-3
NCI-H522 = system: NCI-H522
HCT-116 = system: HCT-116
UO-31 = system: UO-31
A549 = system: A549
HL-60 = system: HL-60
KM12 = system: KM12
DMS-273 = system: DMS-273
DMS-114 = system: DMS-114
SF-295 = system: SF-295
NCI-H460 = system: NCI-H460
SNB-78 = system: SNB-78
SF-268 = system: SF-268
NCI-H226 = system: NCI-H226
HOP-62 = system: HOP-62
ACHN = system: ACHN
786-0 = system: 786-0
CCRF-CEM = system: CCRF-CEM
MOLT-4 = system: MOLT-4
SK-MEL-2 = system: SK-MEL-2
KM-20L2 = system: KM-20L2
HT-29 = system: HT-29
SF-539 = system: SF-539
HOP-18 = system: HOP-18
EKVX = system: EKVX
SK-MEL-5 = system: SK-MEL-5
OVCAR-8 = system: OVCAR-8
M19-MEL = system: M19-MEL
IGROV-1 = system: IGROV-1
SK-MEL-28 = system: SK-MEL-28
TK-10 = system: TK-10
UACC-62 = system: UACC-62
SNB-19 = system: SNB-19
OVCAR-5 = system: OVCAR-5
NCI-H23 = system: NCI-H23
A498 = system: A498
U-251 = system: U-251
OVCAR-4 = system: OVCAR-4
HOP-92 = system: HOP-92
HCC 2998 = system: HCC 2998
LXFL 529 = system: LXFL 529
UACC-257 = system: UACC-257
Malme-3M = system: Malme-3M
OVCAR-3 = system: OVCAR-3
COLO 205 = system: COLO 205
SR = system: SR
XF498 = system: XF498
RPMI-8226 = system: RPMI-8226

## CCOC(=O)C1=C(Nc2ccc(Cl)cc2Cl)OC/C1=N\NS(=O)(=O)c1ccc(C)cc1
SNB-75
  GI50: > 100 µM (inactive)
SN12C
  GI50: > 100 µM (inactive)
M14
  GI50: > 100 µM (inactive)
SW-620
  GI50: > 100 µM (inactive)
K562
  GI50: > 100 µM (inactive)
HCT-15
  GI50: > 100 µM
DLD-1
  GI50: > 100 µM (inactive)
RXF 393
  GI50: > 100 µM (inactive)
LOX IMVI
  GI50: > 100 µM (inactive)
CAKI-1
  GI50: > 100 µM (inactive)
SK-OV-3
  GI50: > 100 µM (inactive)
NCI-H522
  GI50: > 100 µM (inactive)
HCT-116
  GI50: > 100 µM (inactive)
UO-31
  GI50: > 100 µM (inactive)
A549
  GI50: > 100 µM (inactive)
HL-60
  GI50: > 100 µM (inactive)
KM12
  GI50: > 100 µM (inactive)
DMS-273
  GI50: > 100 µM (inactive)
DMS-114
  GI50: > 100 µM (inactive)
SF-295
  GI50: > 100 µM (inactive)
NCI-H460
  GI50: > 100 µM (inactive)
SNB-78
  GI50: > 100 µM (inactive)
SF-268
  GI50: > 100 µM (inactive)
NCI-H226
  GI50: > 100 µM (inactive)
HOP-62
  GI50: > 100 µM (inactive)
ACHN
  GI50: > 100 µM (inactive)
786-0
  GI50: > 100 µM (inactive)
CCRF-CEM
  GI50: > 100 µM (inactive)
MOLT-4
  GI50: > 100 µM (inactive)
SK-MEL-2
  GI50: > 100 µM (inactive)
KM-20L2
  GI50: > 100 µM (inactive)
HT-29
  GI50: > 100 µM (inactive)
SF-539
  GI50: > 100 µM (inactive)
HOP-18
  GI50: > 100 µM (inactive)
EKVX
  GI50: 91.6 µM (inactive)
SK-MEL-5
  GI50: > 100 µM (inactive)
OVCAR-8
  GI50: > 100 µM (inactive)
M19-MEL
  GI50: > 100 µM (inactive)
IGROV-1
  GI50: > 100 µM (inactive)
SK-MEL-28
  GI50: > 100 µM (inactive)
TK-10
  GI50: > 100 µM (inactive)
UACC-62
  GI50: 92.9 µM (inactive)
SNB-19
  GI50: > 100 µM (inactive)
OVCAR-5
  GI50: > 100 µM (inactive)
NCI-H23
  GI50: > 100 µM (inactive)
A498
  GI50: > 100 µM (inactive)
U-251
  GI50: > 100 µM (inactive)
OVCAR-4
  GI50: > 100 µM (inactive)
HOP-92
  GI50: > 100 µM (inactive)
HCC 2998
  GI50: > 100 µM (inactive)
LXFL 529
  GI50: > 100 µM (inactive)
UACC-257
  GI50: > 100 µM (inactive)
Malme-3M
  GI50: > 100 µM (inactive)
OVCAR-3
  GI50: 41.2 µM (inactive)
COLO 205
  GI50: > 100 µM (inactive)
SR
  GI50: > 100 µM (inactive)

## O=C(Cc1ccccc1)Oc1ccc2c(-c3ccccc3)c(C(=O)Nc3ccc(Cl)cc3)c(=O)oc2c1
SNB-75
  GI50: > 100 µM (inactive)
SN12C
  GI50: > 100 µM (inactive)
M14
  GI50: > 100 µM (inactive)
SW-620
  GI50: > 100 µM (inactive)
K562
  GI50: > 100 µM (inactive)
HCT-15
  GI50: > 100 µM
DLD-1
  GI50: > 100 µM (inactive)
RXF 393
  GI50: > 100 µM (inactive)
LOX IMVI
  GI50: > 100 µM (inactive)
CAKI-1
  GI50: > 100 µM (inactive)
SK-OV-3
  GI50: > 100 µM (inactive)
NCI-H522
  GI50: > 100 µM (inactive)
XF498
  GI50: > 100 µM (inactive)
HCT-116
  GI50: > 100 µM (inactive)
UO-31
  GI50: > 100 µM (inactive)
A549
  GI50: > 100 µM (inactive)
HL-60
  GI50: > 100 µM (inactive)
KM12
  GI50: > 100 µM (inactive)
DMS-273
  GI50: > 100 µM (inactive)
DMS-114
  GI50: > 100 µM (inactive)
SF-295
  GI50: > 100 µM (inactive)
NCI-H460
  GI50: > 100 µM (inactive)
RPMI-8226
  GI50: > 100 µM (inactive)
SNB-78
  GI50: > 100 µM (inactive)
SF-268
  GI50: > 100 µM (inactive)
NCI-H226
  GI50: > 100 µM (inactive)
HOP-62
  GI50: > 100 µM (inactive)
ACHN
  GI50: > 100 µM (inactive)
786-0
  GI50: > 100 µM (inactive)
CCRF-CEM
  GI50: > 100 µM (inactive)
MOLT-4
  GI50: > 100 µM (inactive)
KM-20L2
  GI50: > 100 µM (inactive)
HT-29
  GI50: > 100 µM (inactive)
SF-539
  GI50: > 100 µM (inactive)
EKVX
  GI50: > 100 µM (inactive)
SK-MEL-5
  GI50: > 100 µM (inactive)
OVCAR-8
  GI50: > 100 µM (inactive)
M19-MEL
  GI50: > 100 µM (inactive)
IGROV-1
  GI50: > 100 µM (inactive)
SK-MEL-28
  GI50: > 100 µM (inactive)
TK-10
  GI50: > 100 µM (inactive)
UACC-62
  GI50: > 100 µM (inactive)
SNB-19
  GI50: > 100 µM (inactive)
OVCAR-5
  GI50: > 100 µM (inactive)
NCI-H23
  GI50: > 100 µM (inactive)
A498
  GI50: > 100 µM (inactive)
U-251
  GI50: > 100 µM (inactive)
OVCAR-4
  GI50: > 100 µM (inactive)
HOP-92
  GI50: > 100 µM (inactive)
HCC 2998
  GI50: > 100 µM (inactive)
LXFL 529
  GI50: > 100 µM (inactive)
UACC-257
  GI50: > 100 µM (inactive)
Malme-3M
  GI50: > 100 µM (inactive)
OVCAR-3
  GI50: > 100 µM (inactive)
COLO 205
  GI50: > 100 µM (inactive)
SR
  GI50: > 100 µM (inactive)

## CCCCCCCCOC(CO)CO
SN12C
  GI50: > 100 µM (inactive)
M14
  GI50: > 100 µM (inactive)
SW-620
  GI50: > 100 µM (inactive)
K562
  GI50: > 100 µM (inactive)
HCT-15
  GI50: > 100 µM
DLD-1
  GI50: > 100 µM (inactive)
LOX IMVI
  GI50: > 100 µM (inactive)
CAKI-1
  GI50: > 100 µM (inactive)
SK-OV-3
  GI50: > 100 µM (inactive)
HCT-116
  GI50: > 100 µM (inactive)
UO-31
  GI50: > 100 µM (inactive)
A549
  GI50: > 100 µM (inactive)
HL-60
  GI50: > 100 µM (inactive)
DMS-273
  GI50: > 100 µM (inactive)
DMS-114
  GI50: > 100 µM (inactive)
SF-295
  GI50: > 100 µM (inactive)
NCI-H460
  GI50: > 100 µM (inactive)
RPMI-8226
  GI50: > 100 µM (inactive)
SF-268
  GI50: > 100 µM (inactive)
NCI-H226
  GI50: > 100 µM (inactive)
HOP-62
  GI50: > 100 µM (inactive)
ACHN
  GI50: > 100 µM (inactive)
786-0
  GI50: > 100 µM (inactive)
CCRF-CEM
  GI50: > 100 µM (inactive)
MOLT-4
  GI50: > 100 µM (inactive)
KM-20L2
  GI50: > 100 µM (inactive)
HT-29
  GI50: > 100 µM (inactive)
HOP-18
  GI50: > 100 µM (inactive)
SK-MEL-5
  GI50: > 100 µM (inactive)
OVCAR-8
  GI50: > 100 µM (inactive)
M19-MEL
  GI50: > 100 µM (inactive)
IGROV-1
  GI50: > 100 µM (inactive)
SK-MEL-28
  GI50: > 100 µM (inactive)
TK-10
  GI50: > 100 µM (inactive)
UACC-62
  GI50: > 100 µM (inactive)
SNB-19
  GI50: > 100 µM (inactive)
OVCAR-5
  GI50: > 100 µM (inactive)
NCI-H23
  GI50: > 100 µM (inactive)
A498
  GI50: > 100 µM (inactive)
U-251
  GI50: > 100 µM (inactive)
OVCAR-4
  GI50: > 100 µM (inactive)
HOP-92
  GI50: 44.6 µM (inactive)
HCC 2998
  GI50: > 100 µM (inactive)
LXFL 529
  GI50: > 100 µM (inactive)
UACC-257
  GI50: > 100 µM (inactive)
Malme-3M
  GI50: > 100 µM (inactive)
OVCAR-3
  GI50: > 100 µM (inactive)
COLO 205
  GI50: > 100 µM (inactive)
SR
  GI50: > 100 µM (inactive)

Source: ChEMBL document CHEMBL1201862, “PubChem BioAssay data set” (2004)
